Experimental data: PubChem BioAssay AID1259407 (Chemical Carcinogenesis Research Information System (CCRIS), 2018)
The source made the active and inactive calls. How the calls were made is not given here.

Tested on: CCRIS mutagenicity, Ames/micronucleus/aberration tests
Experiment: CCRIS mutagenicity studies
Excerpt: The CCRIS database contains chemical records with carcinogenicity, mutagenicity, tumor promotion, and tumor inhibition test results. It was developed by the National Cancer Institute (NCI). Data are derived from studies cited in primary journals, current awareness tools, NCI reports, and other sources. Test results have been reviewed by experts in carcinogenesis and mutagenesis.
CCRIS provides historical information from the years 1985 - 2011. It is no longer updated.
This is an archive assay for CCRIS mutagenicity studies.

[1] = Test System: AMES SALMONELLA TYPHIMURIUM, Strain/Indicator: TA1538, Metabolic Activation: NONE, Method: STANDARD PLATE
[2] = Test System: AMES SALMONELLA TYPHIMURIUM, Strain/Indicator: TA1538, Metabolic Activation: RAT, LIVER, S-9, AROCLOR 1254, Method: STANDARD PLATE
[3] = Test System: AMES SALMONELLA TYPHIMURIUM, Strain/Indicator: TA100, Metabolic Activation: RAT, LIVER, S-9, AROCLOR 1254, Method: STANDARD PLATE
[4] = Test System: AMES SALMONELLA TYPHIMURIUM, Strain/Indicator: TA100, Metabolic Activation: NONE, Method: STANDARD PLATE
[5] = Test System: AMES SALMONELLA TYPHIMURIUM, Strain/Indicator: TA98, Metabolic Activation: HAMSTER, LIVER, S-9, AROCLOR 1254 (30%), Method: PREINCUBATION
[6] = Test System: AMES SALMONELLA TYPHIMURIUM, Strain/Indicator: TA98, Metabolic Activation: NONE, Method: PREINCUBATION
[7] = Test System: AMES SALMONELLA TYPHIMURIUM, Strain/Indicator: TA98, Metabolic Activation: RAT, LIVER, S-9, AROCLOR 1254 (30%), Method: PREINCUBATION
[8] = Test System: AMES SALMONELLA TYPHIMURIUM, Strain/Indicator: TA100, Metabolic Activation: HAMSTER, LIVER, S-9, AROCLOR 1254 (30%), Method: PREINCUBATION
[9] = Test System: AMES SALMONELLA TYPHIMURIUM, Strain/Indicator: TA100, Metabolic Activation: NONE, Method: PREINCUBATION
[10] = Test System: AMES SALMONELLA TYPHIMURIUM, Strain/Indicator: TA100, Metabolic Activation: RAT, LIVER, S-9, AROCLOR 1254 (30%), Method: PREINCUBATION
[11] = Test System: AMES SALMONELLA TYPHIMURIUM, Strain/Indicator: TA98, Metabolic Activation: NONE, Method: STANDARD PLATE
[12] = Test System: AMES SALMONELLA TYPHIMURIUM, Strain/Indicator: TA1535, Metabolic Activation: NONE, Method: STANDARD PLATE
[13] = Test System: AMES SALMONELLA TYPHIMURIUM, Strain/Indicator: TA1537, Metabolic Activation: NONE, Method: STANDARD PLATE

## O=C(O)c1ccccc1C1=c2cc3c4c(c2Oc2c1cc1c5c2CCCN5CCC1)CCC[N+]=4CCC3
[1]
  mutagenic call: inactive; negative
[2]
  mutagenic call: inactive; negative

## Cc1cccc2c1-c1ccccc1C2C (centres undefined)
Test System: AMES SALMONELLA TYPHIMURIUM, Strain/Indicator: TA98, Metabolic Activation: RAT, LIVER, S-9, AROCLOR 1254, Method: STANDARD PLATE
  mutagenic call: active; positive
[3]
  mutagenic call: active; positive

## Cc1ccc(N(N)c2ccc(C)cc2)cc1
[4]
  mutagenic call: inactive; negative
[3]
  mutagenic call: active; positive
Test System: AMES SALMONELLA TYPHIMURIUM, Strain/Indicator: TA102, Metabolic Activation: NONE, Method: STANDARD PLATE
  mutagenic call: active; positive
Test System: AMES SALMONELLA TYPHIMURIUM, Strain/Indicator: TA102, Metabolic Activation: RAT, LIVER, S-9, AROCLOR 1254, Method: STANDARD PLATE
  mutagenic call: active; positive

## CC(=O)ON(OCc1ccc(C(C)(C)C)cc1)C(=O)c1ccccc1
[4]
  mutagenic call: active; positive

## COC(=O)c1ccc(C)cc1
Test System: AMES SALMONELLA TYPHIMURIUM, Strain/Indicator: TA97, Metabolic Activation: HAMSTER, LIVER, S-9, AROCLOR 1254 (10%), Method: PREINCUBATION
  mutagenic call: inactive; negative
Test System: AMES SALMONELLA TYPHIMURIUM, Strain/Indicator: TA97, Metabolic Activation: HAMSTER, LIVER, S-9, AROCLOR 1254 (30%), Method: PREINCUBATION
  mutagenic call: inactive; negative
Test System: AMES SALMONELLA TYPHIMURIUM, Strain/Indicator: TA97, Metabolic Activation: NONE, Method: PREINCUBATION
  mutagenic call: inactive; negative
Test System: AMES SALMONELLA TYPHIMURIUM, Strain/Indicator: TA97, Metabolic Activation: RAT, LIVER, S-9, AROCLOR 1254 (10%), Method: PREINCUBATION
  mutagenic call: inactive; negative
Test System: AMES SALMONELLA TYPHIMURIUM, Strain/Indicator: TA97, Metabolic Activation: RAT, LIVER, S-9, AROCLOR 1254 (30%), Method: PREINCUBATION
  mutagenic call: inactive; negative
Test System: AMES SALMONELLA TYPHIMURIUM, Strain/Indicator: TA98, Metabolic Activation: HAMSTER, LIVER, S-9, AROCLOR 1254 (10%), Method: PREINCUBATION
  mutagenic call: inactive; negative
[5]
  mutagenic call: inactive; negative
[6]
  mutagenic call: inactive; negative
Test System: AMES SALMONELLA TYPHIMURIUM, Strain/Indicator: TA98, Metabolic Activation: RAT, LIVER, S-9, AROCLOR 1254 (10%), Method: PREINCUBATION
  mutagenic call: inactive; negative
[7]
  mutagenic call: inactive; negative
Test System: AMES SALMONELLA TYPHIMURIUM, Strain/Indicator: TA100, Metabolic Activation: HAMSTER, LIVER, S-9, AROCLOR 1254 (10%), Method: PREINCUBATION
  mutagenic call: inactive; negative
[8]
  mutagenic call: inactive; negative
[9]
  mutagenic call: inactive; negative
Test System: AMES SALMONELLA TYPHIMURIUM, Strain/Indicator: TA100, Metabolic Activation: RAT, LIVER, S-9, AROCLOR 1254 (10%), Method: PREINCUBATION
  mutagenic call: inactive; negative
[10]
  mutagenic call: inactive; negative
Test System: AMES SALMONELLA TYPHIMURIUM, Strain/Indicator: TA1535, Metabolic Activation: HAMSTER, LIVER, S-9, AROCLOR 1254 (10%), Method: PREINCUBATION
  mutagenic call: inactive; negative
Test System: AMES SALMONELLA TYPHIMURIUM, Strain/Indicator: TA1535, Metabolic Activation: HAMSTER, LIVER, S-9, AROCLOR 1254 (30%), Method: PREINCUBATION
  mutagenic call: inactive; negative
Test System: AMES SALMONELLA TYPHIMURIUM, Strain/Indicator: TA1535, Metabolic Activation: NONE, Method: PREINCUBATION
  mutagenic call: inactive; negative
Test System: AMES SALMONELLA TYPHIMURIUM, Strain/Indicator: TA1535, Metabolic Activation: RAT, LIVER, S-9, AROCLOR 1254 (10%), Method: PREINCUBATION
  mutagenic call: inactive; negative
Test System: AMES SALMONELLA TYPHIMURIUM, Strain/Indicator: TA1535, Metabolic Activation: RAT, LIVER, S-9, AROCLOR 1254 (30%), Method: PREINCUBATION
  mutagenic call: inactive; negative
Test System: AMES SALMONELLA TYPHIMURIUM, Strain/Indicator: TA1537, Metabolic Activation: HAMSTER, LIVER, S-9, AROCLOR 1254 (30%), Method: PREINCUBATION
  mutagenic call: inactive; negative
Test System: AMES SALMONELLA TYPHIMURIUM, Strain/Indicator: TA1537, Metabolic Activation: NONE, Method: PREINCUBATION
  mutagenic call: inactive; negative
Test System: AMES SALMONELLA TYPHIMURIUM, Strain/Indicator: TA1537, Metabolic Activation: RAT, LIVER, S-9, AROCLOR 1254 (30%), Method: PREINCUBATION
  mutagenic call: inactive; negative

## c1ccc2cc3c(cc2c1)cc1ccc2cccc4ccc3c1c24
Test System: HUMAN H1A1V2 CELLS, Strain/Indicator: TK LOCUS, Metabolic Activation: NONE, Method: SUSPENSION/PLATE
  mutagenic call: active; positive

## Cc1snc2ccccc12
[11]
  mutagenic call: inactive; negative
Test System: AMES SALMONELLA TYPHIMURIUM, Strain/Indicator: TA98, Metabolic Activation: S-9, Method: STANDARD PLATE
  mutagenic call: inactive; negative
[4]
  mutagenic call: inactive; negative
Test System: AMES SALMONELLA TYPHIMURIUM, Strain/Indicator: TA100, Metabolic Activation: S-9, Method: STANDARD PLATE
  mutagenic call: active; positive
[12]
  mutagenic call: inactive; negative
Test System: AMES SALMONELLA TYPHIMURIUM, Strain/Indicator: TA1535, Metabolic Activation: S-9, Method: STANDARD PLATE
  mutagenic call: inactive; negative
[13]
  mutagenic call: inactive; negative
Test System: AMES SALMONELLA TYPHIMURIUM, Strain/Indicator: TA1537, Metabolic Activation: S-9, Method: STANDARD PLATE
  mutagenic call: inactive; negative

## CCNc1cc2oc(=O)cc(C)c2cc1C
[1]
  mutagenic call: inactive; negative
[2]
  mutagenic call: inactive; negative

## OC[C@H]1OC(O[C@H]2[C@H](O)[C@@H](O)C(O[C@H]3[C@H](O)[C@@H](O)[C@@H](O)O[C@@H]3CO)O[C@@H]2CO)[C@H](O)[C@@H](O)[C@@H]1O (some centres undefined)
[11]
  mutagenic call: inactive; negative
Test System: AMES SALMONELLA TYPHIMURIUM, Strain/Indicator: TA98, Metabolic Activation: RAT, LIVER, S-9, Method: STANDARD PLATE
  mutagenic call: inactive; negative
[4]
  mutagenic call: inactive; negative
Test System: AMES SALMONELLA TYPHIMURIUM, Strain/Indicator: TA100, Metabolic Activation: RAT, LIVER, S-9, Method: STANDARD PLATE
  mutagenic call: inactive; negative
[12]
  mutagenic call: inactive; negative
Test System: AMES SALMONELLA TYPHIMURIUM, Strain/Indicator: TA1535, Metabolic Activation: RAT, LIVER, S-9, Method: STANDARD PLATE
  mutagenic call: inactive; negative
[13]
  mutagenic call: inactive; negative
Test System: AMES SALMONELLA TYPHIMURIUM, Strain/Indicator: TA1537, Metabolic Activation: RAT, LIVER, S-9, Method: STANDARD PLATE
  mutagenic call: inactive; negative
Test System: E. COLI, Strain/Indicator: WP2 UVRA, Metabolic Activation: NONE, Method: STANDARD PLATE
  mutagenic call: inactive; negative
Test System: E. COLI, Strain/Indicator: WP2 UVRA, Metabolic Activation: RAT, LIVER, S-9, Method: STANDARD PLATE
  mutagenic call: inactive; negative

## CCC(Cl)[N+](=O)[O-] (centres undefined)
[5]
  mutagenic call: active; positive
[6]
  mutagenic call: active; positive
[7]
  mutagenic call: active; positive
[8]
  mutagenic call: active; positive
[9]
  mutagenic call: active; positive
[10]
  mutagenic call: active; positive
